Measurements as given in patent publication US8318947B2, “Comestible compositions comprising high potency savory flavorants, and processes for producing them” (Senomyx, Inc., priority 2006, dated 2012).

Tests used:
[1] = tested on: human panelists, savory taste; experiment: Savory taste test with trained human panel (difference from reference); assay type: in vivo
Procedure: General Panelist Selection: Basic screening of sensory taste testers: Potential panelists were tested for their abilities to rank and rate intensities of solutions representing the five basic tastes. Panelists ranked and rated intensity of five different concentrations of each of the five following compounds: sucrose (sweet), sodium chloride (salty), citric acid (sour), caffeine (bitter), and monosodium glutamate (savory). In order to be selected for participation in testing, panelists needed to correctly rank and rate samples for intensity, with a reasonable number of errors.
Preliminary Taste Tests: The panelists selected in the above procedure were deemed qualified for performing Preliminary Taste Testing procedures. The preliminary taste tests are used to evaluate new compounds for intensity of basic tastes and off-tastes. A small group of panelists (n=5) taste approximately 5 concentrations of the compound (range typically between 1-100 μM, in half-log cycles, e.g., 1, 3, 10, 30, and 100 μM) in water and in a solution of 12 mM MSG to evaluate enhancement. Panelists rate the five basic tastes (sweet, salty, sour, bitter, and savory) as well as off-tastes (such as chemical, metallic, sulfur) on a labeled magnitude scale. Samples are served in 10 mL portions at room temperature. The purpose of the test is to determine the highest concentration at which there is no objectionable off-taste, and determine if obvious savory taste or enhancement of savory taste exists at any of the concentrations tested.
Trained Panelist Selection: A trained expert panel was used to further evaluate compounds that had been tested with the preliminary taste test.
Panelists for the trained panel were selected from the larger group of qualifying taste panelists. Panelists were further trained on savory taste by ranking and rating experiments using MSG and IMP combinations. Panelists completed a series of ranking, rating, and difference from reference tests with savory solutions. In ranking and rating experiments, panelists evaluated easy MSG concentrations (0, 6, 18, 36 mM) and more difficult MSG concentrations (3, 6, 12, 18 mM MSG) in water.
Compound testing with Trained Panel: Compounds tested by the trained panel were evaluated in difference from reference experiments. […] Test samples were solutions with varying amounts of MSG, IMP, and the compound. Typically, each session compares the reference sample to numerous test samples. […] Compounds were tested against the reference in samples with and without 12 mM MSG. All samples were presented in 10 ml volumes at room temperature. Two sessions were completed for each compound tested to evaluate panel reproducibility.

[2] = tested on: human subjects, savory taste; experiment: Human taste test of low sodium tomato juice; assay type: in vivo; settings: 3 μM cpd; 400 mg Na/8 oz tomato juice
Procedure: Human taste tests were conducted in order to evaluate the ability of the compounds of the invention to enhance the savory flavor of low sodium tomato juice (which naturally comprises some monosodium glutamate).
The final tomato juice samples for taste testing were prepared so as to comprise 90% (by volume) pre-made low sodium tomato juice stock (pH 4.2, 80˜100 mg Na/8 oz, 16 mM of naturally occurring MSG), 5% (by volume) of stock solutions formulated to produce selected final levels of sodium of final juice, and 5% (by volume) of a stock solution of the compound of the invention. Selected oxalamide compounds of the invention were dissolved in LSB (low sodium phosphate buffer), to provide a stock solution at 20 times the desired final concentration in the final tomato juice. The desired final sodium concentration of the final tomato juice was most experiments 73.6 mM (400 mg sodium in 8 oz. of juice), therefore a stock solution of NaCl was made at 1.48 M NaCl. The pH for the stock solutions was adjusted to 4.2 using a 1 M citric acid solution, and the stock solutions were sonicated to ensure the additive compounds were completely dissolved. […]
Scores were averaged across panelists and sessions, and evaluated using a 2-way ANOVA (factors: panelists and samples) and Duncan's multiple comparison test (alpha=0.05) to determine significant differences in intensity ratings.

COc1cc(C)ccc1CNC(=O)C(=O)NCCc1ccc(C)cn1 [Example 30, N^1-(2-methoxy-4-methylbenzyl)-N^2-(2-(5-methylpyridin-2-yl)ethyl)oxalamide]
melting point: 133.5 to 134 °C | Taste Data: cpd concentration as strong as 12 mM MSG ([1]; compound alone, without MSG): 0.3 μM cpd as strong as | Taste Data: cpd concentration at which 12 mM MSG + cpd is as strong as 12 mM MSG + 100 μM IMP ([1]; with 12 mM MSG, reference 12 mM MSG + 100 μM IMP): 12 mM MSG + 0.3 μM cpd as | Enhancement of the savory taste of 16 mM glutamate (naturally existing) in low sodium tomato juice [2]: by 1.8 to 1.9-fold
